Measurements as given in article PMC11189555, “Aryl amino acetamides prevent Plasmodium falciparum ring development via targeting the lipid-transfer protein PfSTART1” (Nature Communications, 2024).
Read-outs that look alike come from different tables or passages of the source.

Tested on: PopD E3 M-833 resistant clone (PfSTART1 N309K)
Assay: Growth inhibition assay (72 h, LDH activity)
Assay type: cell-based, Plasmodium falciparum
Description: The drug was then removed, and parasites were allowed to recover. Another cycle of drug treatment (3 μM M-833) was then resumed. The resistant lines were cloned out by limiting dilution (diluting the culture into a 96-well plate to achieve an average of ~0.3 parasites per well), prior to growth inhibition assays and genomic DNA (gDNA) extraction (DNeasy Blood and Tissue kit (Qiagen)[18].
Parasite growth assays with inhibitory compounds were performed as per[11] and are fully described in the Supplementary Information.
Molecular biology and transfection of P. falciparum: CRISPR method.
The full 5’ homology region of pfstart1 (either WT, N309K or N330K) was amplified from pPfSTART1-HA-2A-Neo-glmS with the same 5’ BglII primer and a new 3’ primer that replaced with PstI with SpeI and introduced a stop codon. The PCR product was then digested with BglII and SpeI and inserted into similarly digested p1.2 parasite vector2. The p1.2 vector had previously been inserted with a homology region amplified from the 3’ end of the pfstart1 gene (3’HB) to form a second homology block for double recombination. The primers used to amplify 3’HB are listed primers listed in […]
60 μg of p1.2-PfSTART1(WT/N309K/N330K) plasmid was linearised with KasI, precipitated in 3 M sodium acetate and ethanol (70% final concentration) overnight at -20°C. The DNA pellet was washed in cold 70% ethanol and resuspended in cytomix 3.
50 μ M of crRNA ( Table S 2) and 50 μM of tracRNA (Integrated DNA Technologies) were allowed to form a duplex (5 min at 95°C), and Cas9 enzyme (Integrated DNA Technologies) was added, and incubated for 20 min at room temperature 4. This crRNA -tracRNA -Cas9 mix was added to each DNA preparation and transfected to 3D7 ring parasites using the Bio -Rad Gene Pulser at 310 V and 950 μF.
Parasites containing the transfected DNA were selected using 2.5 nM WR99210 (Jacobus). Parasites lines were cloned using limiting dilution. Correct integration was tested by PCR (using primer START_5’UTR.F and START_Int.R1 , Table S 2), and sequencing was done using the primers START_3F and START_Int.R2 (Table S 2).
Growth inhibition assays. Synchronised ring-stage parasites (0.3-0.6% parasitemia, 2% haematocrit) were grown for 72 h in a serial-dilution of the compound under […]
and compound 4. Note that M-833 was first purchased from MolPort (MolPort -002-267-916) then made in-house at WEHI: the differences observed in EC50s across experiments are attributed to the different batches of M -833. For some experiments, 0, 0.25 or 2.5 mM of glucosamine (GlcN) was also added. Experiments were set up in technical duplicates or triplicates. Following a freeze -thaw cycle, lactate dehydrogenase (LDH) activity was assessed as an indicator of parasite growt h 5. 30 μL of parasite culture was incubated for 30 min in the dark with 75 μL Malstat mixture (0.1 M Tris pH 9.0, 20 g/L lactic acid, pH 7.5, 0.2% Triton-X100, 0.5 g/L acetylpyridine adenine dinucleotide (APAD, Sigma), 200 μg/mL nitroblue tetrazolium (NBT; Sigma), 1 μg/mL phenozine ethosulfate (PES; Sigma)). Absorbance was then measured at 650 nm, transformed using the formula below, plotted against the logarithm of the concentrations, and a non-linear regression (log(inhibitor) vs. response, variable slope) was calculated using GraphPad Prism to assess the half-inhibitory […]
Growth inhibition % = (1 − average(sample)− average(uRBC)) ∗ 100 […]
The DMSO samples were also used to assess growth of parasite in the presence of 0.25 and 2.5 mM GlcN (normalised by DMSO in 0 mM GlcN).
Egress, invasion & recovery assay. To measure egress, invasion and follow up recovery in the presence of different compounds, we adapted the method developed in6, using Hyp1-Nluc parasites7. These parasites episomally express the exported PEXEL protein Hyp1 (PF3D7_0113300) tagged with a NanoLuc luciferase (NLuc) and were selected with 2.5 nM WR99210 (Jacobus). Highly synchronised schizonts were […]

Cc1cc(Cl)c(S(=O)(=O)N2CCCC2)cc1OCC(=O)NC1CCCCC1 [M-833]
Normalised to DMSO (M-833 0.0390625 uM, Pop D-E3 replicate 1): 112.377 | Normalised to DMSO (M-833 0.0390625 uM, Pop D-E3 replicate 3): 111.25 | Normalised to DMSO (M-833 0.078125 uM, Pop D-E3 replicate 1): 99.4191 | Normalised to DMSO (M-833 0.078125 uM, Pop D-E3 replicate 3): 110.5 | Normalised to DMSO (M-833 0.15625 uM, Pop D-E3 replicate 1): 107.328 | Normalised to DMSO (M-833 0.15625 uM, Pop D-E3 replicate 3): 114.438 | Normalised to DMSO (M-833 0.3125 uM, Pop D-E3 replicate 1): 106.122 | Normalised to DMSO (M-833 0.3125 uM, Pop D-E3 replicate 3): 114.625 | Normalised to DMSO (M-833 0.625 uM, Pop D-E3 replicate 1): 101.028 | Normalised to DMSO (M-833 0.625 uM, Pop D-E3 replicate 3): 107.875 | Normalised to DMSO (M-833 1.25 uM, Pop D-E3 replicate 1): 86.6399 | Normalised to DMSO (M-833 1.25 uM, Pop D-E3 replicate 3): 110.688 | Normalised to DMSO (M-833 2.5 uM, Pop D-E3 replicate 1): 72.8552 | Normalised to DMSO (M-833 2.5 uM, Pop D-E3 replicate 3): 90.4375 | Normalised to DMSO (M-833 5 uM, Pop D-E3 replicate 1): 44.37 | Normalised to DMSO (M-833 5 uM, Pop D-E3 replicate 3): 73.375 | Normalised to DMSO (M-833 10 uM, Pop D-E3 replicate 1): 23.9276 | Normalised to DMSO (M-833 10 uM, Pop D-E3 replicate 3): 62.6875 | inhibition at 0.0390625 µM (Plasmodium falciparum, M-833 0.0390625 uM, Pop D-E3 replicate 1, read-out: % Inhibition): -12.4% | inhibition at 0.0390625 µM (Plasmodium falciparum, M-833 0.0390625 uM, Pop D-E3 replicate 3, read-out: % Inhibition): -11.2% | inhibition at 0.078125 µM (Plasmodium falciparum, M-833 0.078125 uM, Pop D-E3 replicate 1, read-out: % Inhibition): 0.581% | inhibition at 0.078125 µM (Plasmodium falciparum, M-833 0.078125 uM, Pop D-E3 replicate 3, read-out: % Inhibition): -10.5% | inhibition at 0.15625 µM (Plasmodium falciparum, M-833 0.15625 uM, Pop D-E3 replicate 1, read-out: % Inhibition): -7.33% | inhibition at 0.15625 µM (Plasmodium falciparum, M-833 0.15625 uM, Pop D-E3 replicate 3, read-out: % Inhibition): -14.4% | inhibition at 0.3125 µM (Plasmodium falciparum, M-833 0.3125 uM, Pop D-E3 replicate 1, read-out: % Inhibition): -6.12% | inhibition at 0.3125 µM (Plasmodium falciparum, M-833 0.3125 uM, Pop D-E3 replicate 3, read-out: % Inhibition): -14.6% | inhibition at 0.625 µM (Plasmodium falciparum, M-833 0.625 uM, Pop D-E3 replicate 1, read-out: % Inhibition): -1.03% | inhibition at 0.625 µM (Plasmodium falciparum, M-833 0.625 uM, Pop D-E3 replicate 3, read-out: % Inhibition): -7.88% | inhibition at 1.25 µM (Plasmodium falciparum, M-833 1.25 uM, Pop D-E3 replicate 1, read-out: % Inhibition): 13.4% | inhibition at 1.25 µM (Plasmodium falciparum, M-833 1.25 uM, Pop D-E3 replicate 3, read-out: % Inhibition): -10.7% | inhibition at 2.5 µM (Plasmodium falciparum, M-833 2.5 uM, Pop D-E3 replicate 1, read-out: % Inhibition): 27.1% | inhibition at 2.5 µM (Plasmodium falciparum, M-833 2.5 uM, Pop D-E3 replicate 3, read-out: % Inhibition): 9.56% | inhibition at 5 µM (Plasmodium falciparum, M-833 5 uM, Pop D-E3 replicate 1, read-out: % Inhibition): 55.6% | inhibition at 5 µM (Plasmodium falciparum, M-833 5 uM, Pop D-E3 replicate 3, read-out: % Inhibition): 26.6% | inhibition at 10 µM (Plasmodium falciparum, M-833 10 uM, Pop D-E3 replicate 1, read-out: % Inhibition): 76.1% | inhibition at 10 µM (Plasmodium falciparum, M-833 10 uM, Pop D-E3 replicate 3, read-out: % Inhibition): 37.3% | inhibition at 0.0390625 µM (Plasmodium falciparum, Pop D-E3 replicate 1, M-833 0.0390625 uM): 2.67% | inhibition at 0.078125 µM (Plasmodium falciparum, Pop D-E3 replicate 1, M-833 0.078125 uM): -1.86% | inhibition at 0.15625 µM (Plasmodium falciparum, Pop D-E3 replicate 1, M-833 0.15625 uM): 1.05% | inhibition at 0.3125 µM (Plasmodium falciparum, Pop D-E3 replicate 1, M-833 0.3125 uM): 2.17% | inhibition at 0.625 µM (Plasmodium falciparum, Pop D-E3 replicate 1, M-833 0.625 uM): 5.06% | inhibition at 1.25 µM (Plasmodium falciparum, Pop D-E3 replicate 1, M-833 1.25 uM): 17.9% | inhibition at 2.5 µM (Plasmodium falciparum, Pop D-E3 replicate 1, M-833 2.5 uM): 29.5% | inhibition at 5 µM (Plasmodium falciparum, Pop D-E3 replicate 1, M-833 5 uM): 46.7% | inhibition at 10 µM (Plasmodium falciparum, Pop D-E3 replicate 1, M-833 10 uM): 65.4% | EC50 (Plasmodium falciparum, read-out: EC50 (95% confidence interval)): 3.53 µM | Normalised to DMSO (Pop D-E3 replicate 1, M-833 0.0390625 uM): 97.3266 | Normalised to DMSO (Pop D-E3 replicate 1, M-833 0.078125 uM): 101.86 | Normalised to DMSO (Pop D-E3 replicate 1, M-833 0.15625 uM): 98.9539 | Normalised to DMSO (Pop D-E3 replicate 1, M-833 0.3125 uM): 97.8303 | Normalised to DMSO (Pop D-E3 replicate 1, M-833 0.625 uM): 94.9438 | Normalised to DMSO (Pop D-E3 replicate 1, M-833 1.25 uM): 82.1 | Normalised to DMSO (Pop D-E3 replicate 1, M-833 2.5 uM): 70.5347 | Normalised to DMSO (Pop D-E3 replicate 1, M-833 5 uM): 53.3127 | Normalised to DMSO (Pop D-E3 replicate 1, M-833 10 uM): 34.6377
